Here are results for one molecule from patent publication US9084779B2, “Conjugates of nitroimidazoles and their use as chemotherapeutic agents” (The Johns Hopkins University, priority 2011, dated 2015).

Series [1] concerns LNCaP human prostate cancer cells. Nature of the series: Western blot analysis of 2-nitroimidazole induced protein adducts in cell culture. It is filed as cell-based. The note with it: 80 μM, 6 hours normoxic then 6 hours hypoxic or normoxic. The protocol:
Western blot analysis of 2-nitroimidazole induced protein adducts in LNCaP cell cultures. Exponentially growing LNCaP human prostate cancer cells were treated with DMSO, 80 μM M3N-PEG-2NI or Hypoxyprobe-1 in standard media for 6 hours under normoxic conditions and then under hypoxic or normoxic conditions for additional 6 hours. Afterward the media was aspirated, the cells washed and ice cold RIPA lysis buffer was added and the cells lysed on ice for 15 minutes. The samples were centrifuged and the lysate collected. Cellular proteins in the extracts were analyzed for the presence of protein adducts using standard western blotting technique. The primary antibody was PAb2627 polyclonal antibody (1:200) directed against Hydroxyprobe-1 protein adducts. The secondary antibody was Anti-Rabbit HRP conjugate (1:2000). Detection was by chemiluminescence
(In general: Immunoblotting shows a protein as a band on a membrane.)

For series [2], the system named is Hep3B human hepatocellular carcinoma cells. Nature of the series: MTS tetrazolium cell proliferation assay, 72-h exposure. Type of series: cell-based. The note with it: normoxic (21% O2), read-out: IC50 Normoxic (N). An excerpt: Anti-proliferative assay. The human hepatocellular carcinoma cell line Hep3B was purchased from American Type culture Collection (ATCC, Manassas, Va.). Dulbecco's Modified Eagle Medium (DMEM) and penicillin/streptomycin (P/S) were obtained from GIBCO Invitrogen. Fetal Bovine serum (FBS) was obtained from Thermo Scientific Hyclone. Dimethyl sulfoxide (DMSO-Hybri-Max) was purchased from Sigma-Aldrich Co. and the CellTiter 96 AQueous One Solution Cell Proliferation Assay (MTS) was acquired from Promega Corp. Hep3B cells were maintained in DMEM supplemented with 10% FBS and 1× P/S solution. Cultures were incubated at 37° C. in a 5% CO2 atmosphere with 99% humidity. Stock solutions of test compounds were prepared in DMSO for use in the cell culture viability assays.
MTS tetrazolium cell proliferation assay. The viability of Hep3B cells exposed to the synthesized compounds was determined by the MTS assay. Briefly, Hep3B cells were plated in 96-well plates at a density of 3.0×10^3 cells/well and incubated for 24-h before treatment. At the initiation of treatment, the growth media was replaced with 200 μL of media containing increasing concentrations of the test compounds in triplicate wells. The final DMSO concentration in the media was 1.0% including the media added to the control wells minus the test compound. After a 72-hour incubation, 40 μL of MTS solution was added to each well and the plates were incubated for an additional 3.0 hours. The plates were then read at 490 nm on a Biotek Instruments PowerWave 200 microplate reader. For each experiment the percent growth inhibition relative to the control (no drug addition) was calculated and a dose inhibition curve was generated. The concentration of drug required to inhibit cell growth by 50% (IC50) compared to the control cells was then determined by non-linear regression using PSI-Plot software (Poly Software International).
Antiproliferative activity. The anti-cancer activities of the parent compounds 3 and 8 and the conjugated compounds 7a-d and 10a-d were tested against Hep3B human hepatocellular carcinoma cells in culture.

For series [3] the test system is unchanged. Nature of the series: Hypoxia targeting assay, 5-h exposure then 5 days growth, MTS. It is filed as cell-based. The note with it: for IC50: Homo sapiens. As to the method:
Hypoxia targeting assay. Hep3B cells, plated in 96-well plates at a density of 3.0×10^3 cells/well, were incubated overnight and then treated with the test compounds for 5.0 hours at under hypoxic (1% O2) or normoxic (21% O2) conditions. Exposure of cells to hypoxia was carried out in a PROOX C-Chamber with O2 and CO2 levels modulated by a PROOX Model C21 Controller (BioSpherix). At the end of the treatment period, the wells were washed with phosphate buffered saline (PBS) and fresh compound-free media was added. The cells were cultured for an additional 5 days under normoxic conditions and then assayed for cell proliferation using the MTS assay.
Hypoxia targeting. Nitroimidazoles are converted to reactive compounds in hypoxic cells. Therefore it is of importance to compare the antiproliferative activities of the nitroimidazole conjugated compounds against Hep3B cells under normoxic and hypoxic conditions. In these experiments, Hep3B cells in culture were treated with each of the conjugated compounds 7c-d, 10c-d, or the parent compounds 3 or 8 for a 5.0-hour period under normoxic (21% O2) or hypoxic (1.0% O2) conditions. After treatment, the cells were returned to normal conditions and assayed for proliferation after 5 days of additional growth. […] The ratio between the IC50 values for each drug under normoxic versus hypoxic culture conditions was computed and used as a measure of the relative increase in potency.

Series [4] can be described thus: Determination of water solubility by UV absorbance of a saturated solution. It is filed as physicochemical. The note with it: thermodynamic from solid; water, saturated solution, sonicated at 25° C., stirred at room temperature 1.0 h, filtered. As to the method: The aqueous solubility of all eight compounds was assessed by using a technique involving measurement of their UV absorbance^29.
Determination of Water Solubility of Compounds 7a-d and 10a-d. A saturated solution was prepared by addition of a test compound (7a-d and 10a-d; ca. 1.00 mg) to water (1.00 mL), which was sonicated at 25° C. for 5.0 min and stirring at room temperature for an additional 1.0 h. After filtration with Millipore filters (0.45-μm-pore-size polyvinylidene fluoride), the supernatant was analyzed by UV spectroscopy with concentration determined from absorbance, standardized against calibration data. Standard curves for each compound were obtained by plotting absorbance against concentration. The concentration range of the standard solutions was 1.0-10 μg/mL. For all standards, their curves were linear with γ>0.996.

One may read the IC50 as the point on the concentration scale where inhibition reaches its midpoint. For orientation: solubility means the concentration that dissolves in the medium under given conditions. Higher therefore signals much dissolved substance.

The structures appear in SMILES notation. ≈ marks a conversion by molar mass, not a printed value.

Consider `COc1ccc(C[C@H](C)[C@H](C)Cc2ccc(OC)c(OCCOCCOCCOCCn3ccnc3[N+](=O)[O-])c2)cc1OC` (racemic) [Compound 7d, (±)-(2R,3S)-4-(3,4-Dimethoxyphenyl)-1-[4-methoxy-3-[12-(2-nitro-1H-imidazol-1-yl)-1,4,7,10-tetraoxadodecanyl]phenyl]-2,3-dimethylbutane], for which, in series [1], the “Protein adducts by western blot (PAb2627 antibody)” value is “showed evidence of protein adducts”. The IC50 is 12.6 ± 4.9 µM in series [2]; 53.2 ± 8 µM in series [3] (hypoxic (1.0% O2), then 5 days normoxic growth, read-out: IC50 Hypoxic (H)); 60.8 ± 9.4 µM in series [3] (normoxic (21% O2), then 5 days growth, read-out: IC50 Normoxic (N)). For the same molecule, the “Ratio IC50 (N)/IC50 (H)” value in series [3] (normoxic versus hypoxic) came to 1.14. In series [4], the concentration in solution (solubility at 1 h) came to 13.2 µg/mL (≈ 21.5 µM).
